“And” between values parts separate entries of the source, which are not always exact repeats. Equal entries are not always repeated. Where two headings read alike, the source gives them in different places.

This is an account of results in patent US20160296529A1, “AMINOTRIAZOLOPYRIDINE FOR USE IN THE TREATMENT OF INFLAMMATION, AND PHARMACEUTICAL COMPOSITIONS THEREOF” (priority 2012, published 2016).

In experiment [1] the target is T1, Recombinant human JAK2 catalytic domain (Homo sapiens, UniProt O60674).
T1 construct: amino acids 808-1132; catalog number PV4210; GST; purchased Invitrogen PV4210
Description: JAK2 Ulight-JAK1 peptide assay. Type of experiment: biochemical. On the procedure:
0.0125 mU of JAK2 was incubated with 25 nM Ulight-JAK1(tyr1023) peptide (Perkin Elmer catalog number TRF0121) in kinase reaction buffer (25 mM HEPES pH7.0, 0.01% Triton X-100, 7.5 mM MgCl2, 2 mM DTT, 7.5 μM ATP) with or without 4 μL containing test compound or vehicle (DMSO, 1% final concentration), in a total volume of 20 μL, in a white 384 Opti plate (Perkin Elmer, catalog number 6007290). After 60 min at room temperature, reactions were stopped by adding 20 μL/well of detection mixture (1× detection buffer (Perkin Elmer, catalog number CR97-100C), 0.5 nM Europium-anti-phosphotyrosine (PT66) (Perkin Elmer, catalog number AD0068), 10 mM EDTA). Readout was performed using the Envision with excitation at 320 nm and measuring emission at 615 nm (Perkin Elmer). Kinase activity was calculated by subtracting relative fluorescence units (RFU) obtained in the presence of a positive control inhibitor (10 μM staurosporine) from RFU obtained in the presence of vehicle. The ability of a test compound to inhibit this activity was determined as:
Percentage inhibition−((RFU determined for sample with test compound present−RFU determined for sample with positive control inhibitor) divided by (RFU determined in the presence of vehicle−RFU determined for sample with positive control inhibitor))*100. […]

Experiment [2] has as its target T2, Recombinant human JAK1 catalytic domain (Homo sapiens, UniProt P23458).
T2 construct: amino acids 866-1154; catalog number PV4774; purchased Invitrogen PV4774
As to the kind of experiment: JAK1 Ulight-JAK1 peptide assay. The format is biochemical. How it is done: Recombinant human JAK1 (catalytic domain, amino acids 866-1154; catalog number PV4774) was purchased from Invitrogen. 1 ng of JAK1 was incubated with 20 nM Ulight-JAK1(tyr1023) peptide (Perkin Elmer catalog number TRF0121) in kinase reaction buffer (15 mM MOPS pH6.8, 0.01% Brij-35, 5 mM MgCl2, 2 mM DTT, 7 μM ATP) with or without 4 μL containing test compound or vehicle (DMSO, 1% final concentration), in a total volume of 20 μL, in a white 384 Opti plate (Perkin Elmer, catalog number 6007290). […] Readout was performed using the Envision with excitation at 320 nm and measuring emission at 615 nm (Perkin Elmer). Kinase activity was calculated by subtracting relative fluorescence units (RFU) obtained in the presence of a positive control inhibitor (10 μM staurosporine) from RFU obtained in the presence of vehicle. The ability of a test compound to inhibit this activity was determined as:
Percentage inhibition=((RFU determined for sample with test compound present−RFU determined for sample with positive control inhibitor) divided by (RFU determined in the presence of vehicle−RFU determined for sample with positive control inhibitor))*100.
A dose dilution series was prepared for the compound enabling the testing of dose-response effects in the JAK1 assay and the calculation of the IC50 for the compound. […] The data were expressed as the average IC50 from the assays±standard error of the mean.

[3] abbreviates: average, read-out: IC50 (average).
[4] abbreviates: individual determinations, read-out: IC50.

T2 sequence (P23458 866-1154): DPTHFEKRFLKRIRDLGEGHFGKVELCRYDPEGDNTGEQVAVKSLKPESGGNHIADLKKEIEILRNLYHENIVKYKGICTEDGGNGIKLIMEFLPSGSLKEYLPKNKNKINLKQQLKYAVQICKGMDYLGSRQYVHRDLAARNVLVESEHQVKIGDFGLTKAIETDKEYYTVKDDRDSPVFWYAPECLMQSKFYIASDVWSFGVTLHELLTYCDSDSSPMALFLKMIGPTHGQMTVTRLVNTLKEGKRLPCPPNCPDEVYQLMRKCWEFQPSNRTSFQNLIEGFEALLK
T1 sequence (O60674 808-1132): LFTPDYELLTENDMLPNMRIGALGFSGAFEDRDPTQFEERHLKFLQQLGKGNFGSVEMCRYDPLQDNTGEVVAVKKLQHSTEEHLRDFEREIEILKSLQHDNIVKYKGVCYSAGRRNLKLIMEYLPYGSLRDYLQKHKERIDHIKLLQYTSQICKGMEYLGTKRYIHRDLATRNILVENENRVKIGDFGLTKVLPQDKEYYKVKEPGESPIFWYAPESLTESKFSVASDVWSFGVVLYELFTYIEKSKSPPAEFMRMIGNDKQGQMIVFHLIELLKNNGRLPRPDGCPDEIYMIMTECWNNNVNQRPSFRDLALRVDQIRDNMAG

For the compound `Nc1nc2cccc(-c3ccc(CN4CCS(=O)(=O)CC4)cc3)n2n1` [Formula I, 5-[4-(1,1-Dioxothiomorpholin-4-ylmethyl)-phenyl]-[1,2,4]triazolo[1,5-a]pyridin-2-ylamine], the 50% inhibitory concentration (IC50) – broadly, the concentration that inhibits the measured activity by half – was 0.397 µM in experiment [1] (setting [3]); 1.03 µM and 0.517 µM and 0.351 µM and 0.138 µM and 0.367 µM and 0.31 µM and 0.729 µM and 0.152 µM and 0.203 µM and 0.168 µM in experiment [1] (setting [4]); 0.307 µM in experiment [2] (setting [3]); 0.347 µM and 0.355 µM and 0.222 µM and 0.714 µM and 0.167 µM and 0.103 µM and 0.187 µM and 0.582 µM and 0.295 µM and 0.242 µM and 0.159 µM in experiment [2] (setting [4]).
